Molecules are shown by their SMILES.

The data set is described as follows: Thermo Scientific Acclaim RSLC 120 C18, 100 × 2.1 mm, 2.2 µm, 30 °C, 0.2 to 0.48 mL/min, estimated dead time 1.1 min; A: 90% water + 10% methanol + 5 mM ammonium acetate; B: methanol + 5 mM ammonium acetate; gradient (min/%B) 0.1/1 3/39 14/99.9 16/99.9. The settings on record: stereoisomer not certain.
On to `CCC(C)C(=O)OC1CC(O)C=C2C=CC(C)C(CCC(O)CC(O)CC(=O)O)C21` (stereo not drawn), for which the LC retention time is 8.27 min.
Take `CC(C)(C)Nc1nc(N)[nH]c(=O)n1`: the LC retention time is 5.42 min.
In the case of `C#CC1(O)CCC2C3CCC4=CC(=O)CCC4=C3C=CC21CC` (stereo not drawn), the LC retention time is 9.64 min.
Take `COc1ccc(CC(C)NCC(O)c2ccc(O)c(NC=O)c2)cc1` (stereo not drawn): the LC retention time was 5.91 min.
Under `CC(Cn1cnc2c(N)ncnc21)OCP(=O)(O)O` (stereo not drawn) stands 3.18 min.
Regarding `CCC(=O)OC(OP(=O)(CCCCc1ccccc1)CC(=O)N1CC(C2CCCCC2)CC1C(=O)O)C(C)C` (stereo not drawn), the LC retention time is 13.3 min.
Consider `O=c1[nH]c(=O)[nH]c(=O)[nH]1`, for which the LC retention time was 1.34 min.
Then `CC(C)Nc1nc(N)[nH]c(=O)n1`, with 4.08 min; and `CSc1nnc(C(C)(C)C)c(=O)n1N`, with 7.04 min.
On to `NC(=O)N1c2ccccc2C(O)C(O)c2ccccc21` (stereo not drawn), for which the LC retention time is 6.64 min.
Under `c1coc(-c2nc3ccccc3[nH]2)c1` stands 6.8 min; under `CC12CCC3c4ccc(O)cc4CCC3C1CCC2O` (stereo not drawn), 10.8 min; under `CCc1cccc(CC)c1N(COC)C(=O)C(=O)O`, 7.69 min.
For the compound `CC1(c2ccc(Oc3ccccc3)cc2)OC(=O)N(Nc2ccccc2)C1=O` (stereo not drawn), the LC retention time was 11 min.
In the case of `COCC(C)N(C(=O)C(=O)O)c1c(C)csc1C` (stereo not drawn), the LC retention time was 6.97 min.
With `NCC1(CC(=O)O)CCCCC1`, the LC retention time is 4.08 min.
Then `CCOC(=O)c1cn2nc(OP(=S)(OCC)OCC)cc2nc1C`, with 11.4 min.
Regarding `COc1ccc2cc(C(C)C(=O)O)ccc2c1` (stereo not drawn), the LC retention time is 6.74 min.
On to `CCc1cnc(C2=NC(C)(C(C)C)C(=O)N2)c(C(=O)O)c1` (stereo not drawn), for which the LC retention time is 4.32 min.
Then `CC12CCC(=O)C=C1C(O)CC1C2CCC2(C)C(O)CCC12` (stereo not drawn), with 6.61 min.
Then `COc1cc(C=CC(=O)CC(=O)C=Cc2ccc(O)c(OC)c2)ccc1O`, with 10 min.
Then `O=C(O)c1ccccc1S`, with 5.44 min; and `CNC(=O)C(=NOC)c1ccccc1COc1cc(C)ccc1C`, with 10.6 min; and `CC(C)Cc1ccc(C(C)C(=O)O)cc1` (stereo not drawn), with 9.72 min.
Take `COC(=O)NC(C(=O)NC(Cc1ccccc1)C(O)CN(Cc1ccc(-c2ccccn2)cc1)NC(=O)C(NC(=O)OC)C(C)(C)C)C(C)(C)C` (stereo not drawn): the LC retention time is 12.4 min.
For `CCOC(=O)Nc1cccc(OC(=O)Nc2ccccc2)c1`, the LC retention time was 8.53 min.
Take `CC1(C)CC1C(=O)NC(=CCCCCSCC(N)C(=O)O)C(=O)O` (stereo not drawn): the LC retention time is 4.91 min.
Regarding `CCOC(=O)NCCOc1ccc(Oc2ccccc2)cc1`, the LC retention time is 10.6 min.
`COC(=O)c1ccccc1CS(=O)(=O)NC(=O)Nc1nc(OC)cc(OC)n1`: the LC retention time was 7.66 min.
Then `CCCCCCCCCc1ccc(O)cc1`, with 12.9 min; and `COC(=O)c1sccc1S(=O)(=O)NC(=O)Nc1nc(C)nc(OC)n1`, with 4.52 min.
Consider `Cc1onc(-c2ccccc2)c1-c1ccc(S(N)(=O)=O)cc1`, for which the LC retention time was 7.46 min.
Then `NS(=O)(=O)Cc1noc2ccccc12`, with 5.17 min.
`O=C1NS(=O)(=O)c2ccccc21`: the LC retention time was 3.09 min.
Take `CCNc1nc(NCC)[nH]c(=O)n1`: the LC retention time was 5.56 min.
Turning to `CCCCc1ncc(C=C(Cc2cccs2)C(=O)O)n1Cc1ccc(C(=O)O)cc1`, the LC retention time is 6.51 min.
Take `CC(C)NCC(O)c1ccc(NS(C)(=O)=O)cc1` (stereo not drawn): the LC retention time is 3.91 min.
As to `CCC(C(=O)O)C1CCC(C)C(C(C)C(O)C(C)C(=O)C(CC)C2OC3(C=CC(O)C4(CCC(C)(C5CCC(O)(CC)C(C)O5)O4)O3)C(C)CC2C)O1` (stereo not drawn), the LC retention time is 14.7 min.
Under `CC(C)(C)NCC(O)c1ccc(O)c(CO)c1` (stereo not drawn) stands 4.06 min; under `CN(C)CCC=C1c2ccccc2COc2ccc(CC(=O)O)cc21`, 7.69 min.
Under `CC(=O)Nc1cc(S(=O)(=O)O)cc2cc(S(=O)(=O)O)c(N=Nc3ccccc3)c(O)c12` stands 4.56 min.
Then `O=S(=O)(O)c1ccc2ccccc2c1`, with 5.42 min; and `O=C(O)c1ccccc1O`, with 3.58 min; and `CS(=O)(=O)c1ccc(C(=O)C2C(=O)CCCC2=O)c([N+](=O)[O-])c1`, with 2.13 min.
Turning to `CC12CCC3c4ccc(O)c(O)c4CCC3C1CCC2=O` (stereo not drawn), the LC retention time is 9.89 min.
On to `COc1ccc(C(=O)c2ccccc2O)cc1`, for which the LC retention time is 12.2 min.
Then `CC12CCC3C(CCC4CC(OC5OC(C(=O)O)C(O)C(O)C5O)CCC43C)C1CCC2=O` (stereo not drawn), with 10.2 min.
Then `CCc1cccc(C)c1N(C(=O)C(=O)O)C(C)COC` (stereo not drawn), with 8.29 min.
With `CCC1(O)CCC2C3CCC4=CC(=O)CCC4C3CCC21C` (stereo not drawn), the LC retention time is 14 min.
Then `O=C(O)CCC(=O)c1ccc(-c2ccccc2)cc1`, with 6.79 min; and `NC(=O)N1c2ccccc2C2OC2c2ccccc21` (stereo not drawn), with 8.47 min; and `Cc1ccc(S(N)(=O)=O)cc1`, with 4.79 min.
Then `CCC(C)(CC)c1cc(NC(=O)c2c(OC)cccc2OC)on1`, with 9.39 min.
Take `Cc1c(NC=O)c(=O)n(-c2ccccc2)n1C`: the LC retention time was 4.51 min.
Under `c1ccc2[nH]c(-c3cscn3)nc2c1` stands 6.52 min.
Regarding `O=C(O)c1cccc(Oc2ccccc2)c1`, the LC retention time was 7.77 min.
Turning to `CCOC(=O)CSc1nc(C(C)(C)C)nn1C(=O)N(C)C`, the LC retention time was 6.37 min.
Under `Cc1cn(C2CC(N=[N+]=[N-])C(CO)O2)c(=O)[nH]c1=O` (stereo not drawn) stands 5.06 min; under `CCOS(=O)(=O)O`, 1.52 min; under `CNC(=C[N+](=O)[O-])NCCSCc1ccc(CN(C)C)o1`, 4.67 min.
Then `COCCCOc1cc(CC(CC(N)C(O)CC(C(=O)NCC(C)(C)C(N)=O)C(C)C)C(C)C)ccc1OC` (stereo not drawn), with 10.9 min; and `CC(C)CC(CN)CC(=O)O` (stereo not drawn), with 4.04 min; and `CCCCc1c(C)nc(NCC)nc1OS(=O)(=O)N(C)C`, with 10.5 min.
In the case of `CCOc1nc2cccc(C(=O)O)c2n1Cc1ccc(-c2ccccc2-c2nn[nH]n2)cc1`, the LC retention time was 5.86 min.
Turning to `CC(C)C1(C)N=C(c2nc3ccccc3cc2C(=O)O)NC1=O` (stereo not drawn), the LC retention time is 4.85 min.
As to `CCCCCCC(C)(C)c1ccc(C2CCCC(O)C2)c(O)c1` (stereo not drawn), the LC retention time was 13.2 min.
Then `O=c1[nH]cnc2[nH]ncc12`, with 3.04 min; and `Cc1cccc(Nc2ccccc2C(=O)O)c1C`, with 9.29 min; and `CC(C)C1CCC(C(=O)NC(Cc2ccccc2)C(=O)O)CC1` (stereo not drawn), with 11.4 min.
Then `CC1=NNC(=O)N(N=Cc2cccnc2)C1`, with 4.13 min.
Then `CCCCC1C(=O)N(c2ccccc2)N(c2ccccc2)C1=O`, with 7.46 min; and `O=C1CN=C(c2ccccc2)c2c(sc3c2CCCC3)N1`, with 9.91 min; and `C=C1CC23CC1(O)CCC2C12C=CC(O)C(C)(C(=O)O1)C2C3C(=O)O` (stereo not drawn), with 4.42 min.
On to `CC(=O)Nc1nnc(S(N)(=O)=O)s1`, for which the LC retention time is 3.24 min.
In the case of `CCNCC(=O)Nc1c(C)cccc1C`, the LC retention time is 5.99 min.
Turning to `CC(C)(C#N)c1cc(Cn2cncn2)cc(C(C)(C)C#N)c1`, the LC retention time is 6.38 min.
For the compound `O=C(O)Cc1cccc2ccccc12`, the LC retention time is 5.7 min.
As for `Cc1ccccc1C(=O)Nc1cccc(OC(C)C)c1`, the LC retention time was 9.58 min.
Then `COc1cc(OC)nc(NC(=O)NS(=O)(=O)c2ncccc2C(=O)N(C)C)n1`, with 4.32 min; and `CCN1CCCC1CNC(=O)c1cc(S(=O)(=O)CC)c(N)cc1OC` (stereo not drawn), with 5.08 min; and `Nc1nc2c(ncn2CCC(CO)CO)c(=O)[nH]1`, with 3.34 min.
Then `CC1C=CC=CCCC=CC=CC=CC=CC(OC2OC(C)C(O)C(N)C2O)CC2OC(O)(CC(O)C(O)CCC(O)CC(O)CC(O)CC(=O)OC(C)C(C)C1O)CC(O)C2C(=O)O` (stereo not drawn), with 11.8 min; and `CCC(=C(c1ccccc1)c1ccc(OCCN(C)C)cc1)c1ccc(OC)c(O)c1`, with 11.5 min; and `Oc1ccccc1-c1ccccc1`, with 9.09 min.
Then `CCCCCCCCCCCCOS(=O)(=O)c1ccccc1`, with 14.2 min; and `CCOP(=O)(NC(C)C)Oc1ccc(SC)c(C)c1` (stereo not drawn), with 10.4 min.
Take `CCCCC1C(=O)N(c2ccccc2)N(c2ccc(O)cc2)C1=O` (stereo not drawn): the LC retention time is 7.73 min.
Then `COC(=O)NS(=O)(=O)c1ccc(N)cc1`, with 1.46 min; and `CNC(=O)CSP(=S)(OC)OC`, with 5.25 min; and `O=C1NC(=O)C2CC=CCC12` (stereo not drawn), with 4.36 min.
Under `CNC(=O)N(C)c1nnc(C(C)(C)C)s1` stands 7.21 min.
Then `CCCN(CCC)c1c([N+](=O)[O-])cc(S(N)(=O)=O)cc1[N+](=O)[O-]`, with 10.2 min; and `CCCCCC(C)N` (stereo not drawn), with 4.41 min; and `CC12CCC3c4ccc(O)cc4CCC3C1CCC2=O` (stereo not drawn), with 10.8 min.
Take `CNC(=O)Oc1cccc2ccccc12`: the LC retention time was 7.42 min.
Take `CNCC(O)c1ccc(O)cc1` (stereo not drawn): the LC retention time is 2.26 min.
Under `CCC1(CC)C(=O)NC(=O)NC1=O` stands 4.8 min; under `CNC(=O)N(C)c1nc2ccccc2s1`, 8.23 min.

The record behind these values is the RepoRT retention time repository.
